Data from US10072011B2, “Substituted bridged urea analogs as sirtuin modulators” (GlaxoSmithKline Intellectual Property (No.2) Limited, priority 2014, dated 2018).
Read-outs that look alike come from different tables or passages of the source.

Biological target: T1, SIRT1 (Homo sapiens, UniProt Q96EB6)
T1 sequence (Q96EB6 1-747): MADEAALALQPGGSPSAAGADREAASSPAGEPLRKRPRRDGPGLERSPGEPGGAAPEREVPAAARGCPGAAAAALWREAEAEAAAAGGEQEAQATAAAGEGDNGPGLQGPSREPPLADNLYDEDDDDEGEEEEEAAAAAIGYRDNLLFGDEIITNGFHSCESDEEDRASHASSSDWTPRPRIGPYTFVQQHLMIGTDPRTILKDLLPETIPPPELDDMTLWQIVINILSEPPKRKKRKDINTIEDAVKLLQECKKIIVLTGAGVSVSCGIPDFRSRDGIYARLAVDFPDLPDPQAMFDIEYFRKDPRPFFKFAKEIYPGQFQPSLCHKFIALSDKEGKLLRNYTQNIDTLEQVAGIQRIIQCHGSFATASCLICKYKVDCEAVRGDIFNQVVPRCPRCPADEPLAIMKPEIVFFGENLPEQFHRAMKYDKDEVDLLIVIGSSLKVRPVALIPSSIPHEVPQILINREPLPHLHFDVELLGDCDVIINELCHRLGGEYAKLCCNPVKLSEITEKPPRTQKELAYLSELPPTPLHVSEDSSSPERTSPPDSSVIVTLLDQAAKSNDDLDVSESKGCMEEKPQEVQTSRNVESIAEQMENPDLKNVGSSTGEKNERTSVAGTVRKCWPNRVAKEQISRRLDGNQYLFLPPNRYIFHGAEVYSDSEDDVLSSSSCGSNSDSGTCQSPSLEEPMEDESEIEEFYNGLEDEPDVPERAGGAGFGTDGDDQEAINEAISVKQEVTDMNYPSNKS
Assay: Trp mass spectrometry assay of SIRT1 activation (Ac-R-H-K-K(Ac)-W-NH2 peptide)
Type: biochemical
Settings: for Emax: 25 min, read-out: TRP MAX RESP (percent maximum fold activation)
How it was run: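 N-terminal His-tagged human SIRT1, expressed in BL21(DE3) and purified, was incubated 25 min with an acetylated Trp peptide and NAD plus test compound at varying concentrations, then quenched with formic acid. OAADPR or deacetylated peptide was quantified by mass spectrometry versus compound-free control; EC1.5 is the concentration giving 50% activity increase, with percent maximum activation.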

[1] = Trp peptide 0.5 μM, 120 μM βNAD+, 10 nM SIRT1, 25 min at 25° C., relative to control (100%)
[2] = Trp peptide 0.5 μM, 120 μM βNAD+, 10 nM SIRT1, 25 min at 25° C.

Row | Emax [1] | TRP Activity (EC1.5, concentration of test compound that results in 150% activation of SIRT1) [2] | Structure (SMILES) | Emax
1 | > 150% | B (EC1.5 1-25 μM) | O=C(NC1CC1)c1ccc2c(n1)N(C(=O)Nc1cnccn1)[C@H]1CCN2C1 [Example 222, (4S)—N7-cyclopropyl-N5-(pyrazin-2-yl)-3,4-dihydro-1,4-methanopyrido[2,3-b][1,4]diazepine-5,7(2H)-dicarboxamide] | –
2 | > 150% | B (EC1.5 1-25 μM) | Cc1cc(F)cnc1NC(=O)N1c2nc(C(=O)N[C@H](C)C(F)(F)F)ccc2N2CC[C@H]1C2 [Example 57, (4S)—N5-(5-fluoro-3-methylpyridin-2-yl)-N7-((R)-1,1,1-trifluoropropan-2-yl)-3,4-dihydro-1,4-methanopyrido[2,3-b][1,4]diazepine-5,7(2H)-dicarboxamide] | –
3 | > 150% | A (EC1.5<1 μM) | CC[C@@H](NC(=O)c1ccc2c(n1)N(C(=O)Nc1cc(OC[C@H](O)CO)ccn1)[C@H]1CCN2C1)C(F)(F)F [Example 90, (4S)—N5-(4-((R)-2,3-dihydroxypropoxy)pyridin-2-yl)-N7-((R)-1,1,1-trifluorobutan-2-yl)-3,4-dihydro-1,4-methanopyrido[2,3-b][1,4]diazepine-5,7(2H)-dicarboxamide] | –
4 | > 150% | A (EC1.5<1 μM) | CCCNC(=O)c1ccc2c(n1)N(C(=O)Nc1ccccn1)[C@H]1CCN2C1 [Example 40, (4S)—N7-propyl-N5-(pyridin-2-yl)-3,4-dihydro-1,4-methanopyrido[2,3-b][1,4]diazepine-5,7(2H)-dicarboxamide] | –
5 | > 150% | A (EC1.5<1 μM) | O=C(NCc1ccccc1)c1ccc2c(n1)N(C(=O)Nc1ccccn1)[C@H]1CCN2C1 [Example 106, (4S)—N7-benzyl-N5-(pyridin-2-yl)-3,4-dihydro-1,4-methanopyrido[2,3-b][1,4]diazepine-5,7(2H)-dicarboxamide] | –
6 | > 150% | A (EC1.5<1 μM) | O=C(NCC1CC1)c1ccc2c(n1)N(C(=O)Nc1ccc(Cl)cn1)[C@H]1CCN2C1 [Example 51, (4S)—N5-(5-chloropyridin-2-yl)-N7-(cyclopropylmethyl)-3,4-dihydro-1,4-methanopyrido[2,3-b][1,4]diazepine-5,7(2H)-dicarboxamide] | –
7 | < 150% | A (EC1.5<1 μM) | C[C@@H](NC(=O)c1ccc2c(n1)N(C(=O)Nc1cc(-c3cn[nH]c3)ccn1)[C@H]1CCN2C1)C(F)(F)F [Example 321, (4S)—N5-(4-(1H-pyrazol-4-yl)pyridin-2-yl)-N7-((R)-1,1,1-trifluoropropan-2-yl)-3,4-dihydro-1,4-methanopyrido[2,3-b][1,4]diazepine-5,7(2H)-dicarboxamide] | –
8 | > 150% | B (EC1.5 1-25 μM) | O=C(NC1(CO)CC1)c1ccc2c(n1)N(C(=O)Nc1ccccn1)[C@H]1CCN2C1 [Example 17, (4S)—N7-(1-(hydroxymethyl)cyclopropyl)-N5-(pyridin-2-yl)-3,4-dihydro-1,4-methanopyrido[2,3-b][1,4]diazepine-5,7(2H)-dicarboxamide] | –
9 | > 150% | B (EC1.5 1-25 μM) | C[C@@H](NC(=O)c1ccc2c(n1)N(C(=O)Nc1ncc(F)cc1F)[C@H]1CCN2C1)C(F)(F)F [Example 239, (4S)—N5-(3,5-difluoropyridin-2-yl)-N7-((R)-1,1,1-trifluoropropan-2-yl)-3,4-dihydro-1,4-methanopyrido[2,3-b][1,4]diazepine-5,7(2H)-dicarboxamide] | –
10 | < 150% | A (EC1.5<1 μM) | Cc1ncc(-c2cc(NC(=O)N3c4nc(C(=O)N[C@H](C)C(F)(F)F)ccc4N4CC[C@H]3C4)c(=O)n(C)c2)o1 [Example 319, (4S)—N5-(1-methyl-5-(2-methyloxazol-5-yl)-2-oxo-1,2-dihydropyridin-3-yl)-N7-((R)-1,1,1-trifluoropropan-2-yl)-3,4-dihydro-1,4-methanopyrido[2,3-b][1,4]diazepine-5,7(2H)-dicarboxamide] | –
11 | > 150% | B (EC1.5 1-25 μM) | NC(=O)c1ccc2c(n1)N(C(=O)Nc1ccccn1)[C@H]1CCN2C1 [Example 257, (4S)—N5-(pyridin-2-yl)-3,4-dihydro-1,4-methanopyrido[2,3-b][1,4]diazepine-5,7(2H)-dicarboxamide] | –
12 | > 150% | A (EC1.5<1 μM) | O=C(NC[C@@H](O)C(F)(F)F)c1ccc2c(n1)N(C(=O)Nc1ccc(F)cn1)[C@H]1CCN2C1 [Example 71, (4S)—N5-(5-fluoropyridin-2-yl)-N7-((R)-3,3,3-trifluoro-2-hydroxypropyl)-3,4-dihydro-1,4-methanopyrido[2,3-b][1,4]diazepine-5,7(2H)-dicarboxamide] | –
13 | > 150% | A (EC1.5<1 μM) | C[C@@H](NC(=O)c1ccc2c(n1)N(C(=O)Nc1cc(C(=O)NN)ccn1)[C@H]1CCN2C1)C(F)(F)F [Example 152, (4S)—N5-(4-(hydrazinecarbonyl)pyridin-2-yl)-N7-((R)-1,1,1-trifluoropropan-2-yl)-3,4-dihydro-1,4-methanopyrido[2,3-b][1,4]diazepine-5,7(2H)-dicarboxamide] | –
14 | > 150% | A (EC1.5<1 μM) | Cc1nc(NC(=O)N2c3nc(C(=O)NCC4CC4)ccc3N3CC[C@H]2C3)ccc1F [Example 112, (4S)—N7-(cyclopropylmethyl)-N5-(5-fluoro-6-methylpyridin-2-yl)-3,4-dihydro-1,4-methanopyrido[2,3-b][1,4]diazepine-5,7(2H)-dicarboxamide] | –
15 | > 150% | B (EC1.5 1-25 μM) | O=C(OCC(F)(F)F)c1ccc2c(n1)N(C(=O)Nc1ccccn1)[C@H]1CCN2C1 [Example 278, (4S)-2,2,2-trifluoroethyl 5-(pyridin-2-ylcarbamoyl)-2,3,4,5-tetrahydro-1,4-methanopyrido[2,3-b][1,4]diazepine-7-carboxylate] | –
16 | > 150% | A (EC1.5<1 μM) | O=C(NCCF)c1ccc2c(n1)N(C(=O)Nc1ccccn1)[C@H]1CCN2C1 [Example 39, (4S)—N7-(2-fluoroethyl)-N5-(pyridin-2-yl)-3,4-dihydro-1,4-methanopyrido[2,3-b][1,4]diazepine-5,7(2H)-dicarboxamide] | –
17 | > 150% | A (EC1.5<1 μM) | O=C(NCC(F)(F)CO)c1ccc2c(n1)N(C(=O)Nc1ccccn1)[C@H]1CCN2C1 [Example 117, (4S)—N7-(2,2-difluoro-3-hydroxypropyl)-N5-(pyridin-2-yl)-3,4-dihydro-1,4-methanopyrido[2,3-b][1,4]diazepine-5,7(2H)-dicarboxamide] | –
18 | > 150% | B (EC1.5 1-25 μM) | Cc1ccnc(NC(=O)N2c3nc(C(=O)NC4CC4)ccc3N3CC[C@H]2C3)c1 [Example 22, (4S)—N7-cyclopropyl-N5-(4-methylpyridin-2-yl)-3,4-dihydro-1,4-methanopyrido[2,3-b][1,4]diazepine-5,7(2H)-dicarboxamide] | –
19 | > 150% | A (EC1.5<1 μM) | C[C@@H](NC(=O)c1ccc2c(n1)N(C(=O)Nc1ncc3[nH]cnc3n1)[C@H]1CCN2C1)C(F)(F)F [Example 166, (4S)—N5-(7H-purin-2-yl)-N7-((R)-1,1,1-trifluoropropan-2-yl)-3,4-dihydro-1,4-methanopyrido[2,3-b][1,4]diazepine-5,7(2H)-dicarboxamide] | –

Row | Structure (SMILES) | Emax [1] | TRP Activity (EC1.5, concentration of test compound that results in 150% activation of SIRT1) [2] | Emax
20 | CC(C)NC(=O)c1ccc2c(n1)N(C(=O)Nc1ccccn1)[C@H]1CCN2C1 [Example 32, (4S)—N7-isopropyl-N5-(pyridin-2-yl)-3,4-dihydro-1,4-methanopyrido[2,3-b][1,4]diazepine-5,7(2H)-dicarboxamide] | – | A (EC1.5<1 μM) | > 150%
